Assay results taken from patent publication US20030044399A1, “Method of treatment” (SmithKline Beecham Corporation, priority 1998, published 2003).
Like-named read-outs stand apart in the source and are kept apart here.

Columns and labels:
[1] = biological target: T1, Leishmania B (UniProt P90627); test: Cysteine protease inhibition, progress curve method, leishmania B; format: biochemical, Leishmania spp; conditions: read-out: Leishmania B Ki nM; 10 uM Cbz-Phe-Arg-AMC, 100 mM Na acetate pH 5.5, 5 mM cysteine
T1 sequence (P90627 1-340): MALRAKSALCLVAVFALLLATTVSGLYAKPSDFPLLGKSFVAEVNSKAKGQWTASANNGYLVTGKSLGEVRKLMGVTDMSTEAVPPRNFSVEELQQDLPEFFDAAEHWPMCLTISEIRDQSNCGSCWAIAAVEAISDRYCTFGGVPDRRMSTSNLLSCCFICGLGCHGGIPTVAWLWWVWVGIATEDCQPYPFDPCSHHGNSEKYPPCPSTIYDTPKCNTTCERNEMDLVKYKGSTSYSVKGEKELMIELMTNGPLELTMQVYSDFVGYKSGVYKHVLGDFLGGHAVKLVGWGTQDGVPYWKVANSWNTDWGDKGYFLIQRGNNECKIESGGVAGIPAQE
Procedure: (§1) Standard assay conditions for the determination of kinetic constants used 10 uM fluorogenic peptide substrate, Cbz-Phe-Arg-AMC for the cysteine proteases from Leishmania spp and Schistosoma Mansoni, Cbz-Leu-Arg-AMC for the cysteine proteases from Plasmodium falciparum and Trypanosoma brucei rhodesiensi, and Ac-Lys-Glu-Lys-Leu-Arg-AMC (4 uM final substrate concentration) for the cysteine protease from Trypoanosoma cruzi, and were determined in 100 mM Na acetate at pH 5.5 containing 5 mM cysteine. Stock substrate solutions were prepared at concentrations of […] in DMSO with 10 uM (4 uM for Ac-Lys-Glu-Lys-Leu-Arg-AMC) final substrate concentration in the assays. The final DMSO concentration was 2% and the final volume was 100 uL. All assays were conducted at ambient temperature. Product progress curves were generated over 20 to 30 minutes following formation of AMC product.
(§2) Potential inhibitors were evaluated using the progress curve method. Assays were carried out in the presence of variable concentrations of test compound. Reactions were initiated by addition of enzyme to buffered solutions of inhibitor and substrate. Data analysis was conducted according to one of two procedures depending on the appearance of the progress curves in the presence of inhibitors. For those compounds whose progress curves were linear, apparent inhibition constants (Ki,app) were calculated according to equation 1 (Brandt et al., Biochemitsry, 1989, 28, 140):
(§3) v=VmA/[Ka(1+I/Ki,app)+A] (1)
(§4) Where v is the velocity of the reaction with maximal velocity Vm, A is the concentration of substrate with Michaelis constant of Ka, and I is the concentration of inhibitor.
(§5) [AMC]=vsst+(v0−vss)[1−exp (−kobst)]/kobs (2)
(§6) Where [AMC] is the concentration of product formed over time t, v0 is the initial reaction velocity and vss is the final steady state rate. Values for kobs were then analyzed as a linear function of inhibitor concentration to generate an apparent second order rate constant (kobs/inhibitor concentration or kobs/[I]) describing the time-dependent inhibition. A complete discussion of this kinetic treatment has been fully described (Morrison et al., Adv. Enzymol. Relat. Areas Mol. Biol., 1988, 61, 201).
(§7) Exemplary inhibition data for the compounds used in the present method collected in accordance with the above-described procedure are listed in Table I.

[2] = biological target: Rhodazain (Trypanosoma brucei rhodesiense, UniProt Q95PM0); test: Cysteine protease inhibition, progress curve method, rhodazain; format: biochemical, Trypanosoma brucei rhodesiensi; conditions: Rhodazain Ki (nM), 10 uM Cbz-Leu-Arg-AMC, 100 mM Na acetate pH 5.5, 5 mM cysteine
Chain of Rhodazain (Q95PM0 entry or part of it): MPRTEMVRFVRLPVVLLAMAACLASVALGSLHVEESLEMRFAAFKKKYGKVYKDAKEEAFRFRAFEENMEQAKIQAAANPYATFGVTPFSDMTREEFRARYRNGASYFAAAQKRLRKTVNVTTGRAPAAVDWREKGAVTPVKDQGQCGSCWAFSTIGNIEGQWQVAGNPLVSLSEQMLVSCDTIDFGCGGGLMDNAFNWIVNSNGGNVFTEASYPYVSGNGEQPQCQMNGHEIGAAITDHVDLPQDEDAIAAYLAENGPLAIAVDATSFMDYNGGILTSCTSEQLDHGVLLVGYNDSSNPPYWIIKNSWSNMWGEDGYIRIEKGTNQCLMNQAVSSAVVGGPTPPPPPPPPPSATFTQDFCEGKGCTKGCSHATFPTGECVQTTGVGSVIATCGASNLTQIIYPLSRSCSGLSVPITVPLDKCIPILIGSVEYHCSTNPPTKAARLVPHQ

[3] = biological target: Schisto B 1 (Schistosoma mansoni, UniProt P25792); test: Cysteine protease inhibition, progress curve method, schistosoma B 1; format: biochemical
Chain of Schisto B 1 (P25792 89-340): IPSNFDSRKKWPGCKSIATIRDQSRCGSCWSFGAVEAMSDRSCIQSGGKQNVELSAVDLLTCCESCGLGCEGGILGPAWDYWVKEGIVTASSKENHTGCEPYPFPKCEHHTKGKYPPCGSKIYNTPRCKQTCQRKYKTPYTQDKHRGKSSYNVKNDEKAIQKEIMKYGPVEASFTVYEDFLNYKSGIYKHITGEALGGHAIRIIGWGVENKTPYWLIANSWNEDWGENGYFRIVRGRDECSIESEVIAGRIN
Procedure: as §1, §2, §3, §4, §5, §6, §7

[4] = biological target: Cruzain (Trypanosoma cruzi, UniProt P25779); test: Cysteine protease inhibition, progress curve method, cruzain; format: biochemical; conditions: 4 uM Ac-Lys-Glu-Lys-Leu-Arg-AMC, 100 mM Na acetate pH 5.5, 5 mM cysteine; read-out: Cruzain Ki
Chain of Cruzain (P25779 123-337): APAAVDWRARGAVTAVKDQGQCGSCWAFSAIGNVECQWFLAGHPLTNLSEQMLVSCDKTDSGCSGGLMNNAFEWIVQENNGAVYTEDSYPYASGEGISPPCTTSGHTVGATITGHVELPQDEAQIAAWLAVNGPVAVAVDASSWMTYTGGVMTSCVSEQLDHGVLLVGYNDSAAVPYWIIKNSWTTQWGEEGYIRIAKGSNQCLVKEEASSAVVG
In short: (§8)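 Buffer was 100 mM sodium acetate pH 5.5 with 5 mM cysteine and 2% DMSO, at ambient temperature; reactions started with enzyme, and AMC formation was followed for 20–30 min. Substrates: Leishmania and Schistosoma, 10 uM Cbz-Phe-Arg-AMC; falcipain, 10 uM Cbz-Leu-Arg-AMC; cruzain, 4 uM Ac-Lys-Glu-Lys-Leu-Arg-AMC. Linear curves gave Ki,app; curved ones gave kobs/[I].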

[5] = biological target: Schisto B 2 (Schistosoma mansoni, UniProt Q95PM1); test: Cysteine protease inhibition, progress curve method, schistosoma B 2; format: biochemical; conditions: 10 uM Cbz-Phe-Arg-AMC, 100 mM Na acetate pH 5.5, 5 mM cysteine
Chain of Schisto B 2 (Q95PM1 entry or part of it): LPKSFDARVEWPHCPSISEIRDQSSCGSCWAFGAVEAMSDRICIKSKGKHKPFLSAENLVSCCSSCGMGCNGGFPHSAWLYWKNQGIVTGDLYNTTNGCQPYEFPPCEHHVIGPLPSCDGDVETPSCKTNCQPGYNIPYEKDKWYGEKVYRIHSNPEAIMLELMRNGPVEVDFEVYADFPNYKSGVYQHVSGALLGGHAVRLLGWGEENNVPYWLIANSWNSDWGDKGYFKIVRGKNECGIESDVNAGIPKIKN
Procedure: as §1, §2, §3, §4, §5, §6, §7

[6] = biological target: Falcipain 2 (Plasmodium falciparum, UniProt Q8I6U4); test: Cysteine protease inhibition, progress curve method, falcipain; format: biochemical; conditions: 10 uM Cbz-Leu-Arg-AMC, 100 mM Na acetate pH 5.5, 5 mM cysteine
Chain of Falcipain 2 (Q8I6U4 244-484): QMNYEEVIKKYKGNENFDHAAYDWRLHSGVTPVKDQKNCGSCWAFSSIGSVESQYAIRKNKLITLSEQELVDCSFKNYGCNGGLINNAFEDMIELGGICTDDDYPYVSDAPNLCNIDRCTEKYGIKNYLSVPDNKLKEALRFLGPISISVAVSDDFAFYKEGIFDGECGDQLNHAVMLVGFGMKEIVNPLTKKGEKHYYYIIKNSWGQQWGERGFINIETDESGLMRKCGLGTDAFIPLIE
In short: as §8

[7] = 10 uM Cbz-Phe-Arg-AMC, 100 mM Na acetate pH 5.5, 5 mM cysteine, read-out: Schisto B 1 Ki

Ki [5]	SMILES	Ki [1]	Ki [2]	Ki [3, 7]	Ki [4]	Ki [6]	Ki [3]
	O=C(N[C@@H](Cc1ccccc1)C(=O)NC1CCCN(S(=O)(=O)c2ccccn2)CC1=O)c1cccc2cccnc12 (single isomer, unassigned) [Example 189]	3.9 nM	3.1 nM				
330 nM	CC(C)C[C@@H](NC(=O)c1ccc2c(c1)OCO2)C(=O)N[C@@H]1CCCN(S(=O)(=O)c2ccc(F)cc2)CC1=O (stereo in doubt) [Example 67, Benzo[1,3]dioxole-5-carboxylic acid {(S)-1-[1-(4-fluoro-benzenesulfonyl)-3-oxo-azepan-4-ylcarbamoyl]-3methyl-butyl}-amide]			45 nM	11 nM		
260 nM	CC(C)C[C@H](NC(=O)c1cnc2ccccc2n1)C(=O)N[C@H]1CCCN(S(=O)(=O)c2ccc(F)cc2)CC1=O [Example 86]			44 nM	23 nM		
280 nM	COc1ccc(C(=O)N[C@@H](CC(C)C)C(=O)N[C@@H]2CCCN(S(=O)(=O)c3ccc(F)cc3)CC2=O)cc1OC [Example 110, N—{(S)-1-[1-(4-Fluoro-benzenesulfonyl)-3-oxo-azepan-4-ylcarbamoyl}-3-methyl-butyl}-3,4-dimethoxy-benzamide]			38 nM	7.4 nM	96 nM	
170 nM	COc1cccc(S(=O)(=O)N2CCC[C@H](NC(=O)[C@H](CC(C)C)NC(=O)c3cc4ccccc4o3)C(=O)C2)c1 [Example 136, Benzofuran-2-carboxylic acid-{(S)-1-[1-(3-methoxy-benzenesulfonyl)-3-oxo-azepan-4-ylcarbamoyl]-3-methyl-butyl}-amide]			41 nM	12 nM		
380 nM	COc1cccc(S(=O)(=O)N2CCC[C@H](NC(=O)[C@H](CC(C)C)NC(=O)c3cc4cc(OC)ccc4o3)C(=O)C2)c1 [Example 137, 5-Methoxy-benzofuran-2-carboxylic acid-{(S)-1-[1-(3-methoxy-benzenesulfonyl)-3-oxo-azepan-4-ylcarbamoyl]-3-methyl-butyl}-amide]			67 nM	19 nM		
280 nM	COc1cccc(S(=O)(=O)N2CCC[C@H](NC(=O)[C@H](CC(C)C)NC(=O)c3cc4ccccc4s3)C(=O)C2)c1 [Example 140, Benzo[b]thiophene-2-carboxylic acid-{(S)-1-[1-(3-methoxy-benzenesulfonyl)-3-oxo-azepan-4-ylcarbamoyl]-3-methyl-butyl}-amide]			68 nM			
400 nM	COc1cccc(S(=O)(=O)N2CCC[C@H](NC(=O)[C@H](CC(C)C)NC(=O)c3cc4ccccc4n3C)C(=O)C2)c1 [Example 141, 1-Methyl-1H-indole-2-carboxylic acid-{(S)-1-[1-(3-methoxy-benzenesulfonyl)-3-oxo-azepan-4-ylcarbamoyl]-3-methyl-butyl}-amide]			50 nM			
	O=C(N[C@@H](Cc1ccc2ccccc2c1)C(=O)NC1CCCN(S(=O)(=O)c2ccccn2)CC1=O)c1cc2ccccc2o1 (stereo partly drawn) [Example 159, Benzofuran-2-carboxylic acid {(S)-2-naphthalen-2-yl-1-[3-oxo-1-(pyridine-2-sulfonyl)-azepan-4-ylcarbamoyl)-ethyl]-amide]	1.4 nM	3.4 nM				47 nM
	O=C(NC(Cc1ccc2ccccc2c1)C(=O)NC1CCCN(S(=O)(=O)c2ccccn2)CC1=O)c1cccc2cccnc12 [Example 187, Quinoline-8-carboxylic acid {(S)-2-naphthalen-2-yl-1-[3-oxo-1-(pyridine-2-sulfonyl)-azepan-4-ylcarbamoyl]-ethyl}-amide]	2.1 nM	2.5 nM	8.4 nM	6.8 nM		
	CC(C)C[C@H](NC(=O)c1cc2ccccc2o1)C(=O)NC1CCCN(Cc2ccc3ccccc3n2)CC1=O (stereo partly drawn) [Example 212, Benzofuran-2-carboxylic acid [(S)-3-methyl-1-[3-oxo-1-quinolin-2-ylmethyl-azepan-4-ylcarbamoyl]-butyl}-amide]	1.7 nM			7.7 nM		
	Cc1c(C(=O)N[C@@H](CC(C)C)C(=O)NC2CCCN(Cc3ccc4ccccc4n3)CC2=O)oc2ccccc12 (stereo partly drawn) [Example 213, 3-Methyl-benzofuran-2-carboxylic acid [(S)-3-methyl-1-[3-oxo-1-quinolin-2-ylmethyl-azepan-4-ylcarbamoyl]-butyl}-amide]	0.77 nM			7.1 nM		
	CC(C)C[C@H](NC(=O)c1cc2ccccc2s1)C(=O)NC1CCCN(Cc2ccc3ccccc3n2)CC1=O (stereo partly drawn) [Example 214, Benzo[b]thiophene-2-carboxylic acid {(S)-3-methyl-1-[3-oxo-1-quinolin-2-ylmethyl-azepan-4-ylcarbamoyl]-butyl}-amide]	1 nM			7.4 nM		

SMILES	Ki [5]	Ki [1]	Ki [2]	Ki [3, 7]	Ki [4]	Ki [6]	Ki [3]
O=C(NC(Cc1ccccc1)C(=O)N[C@@H]1CCCN(S(=O)(=O)c2ccccn2)CC1=O)c1cccc2ccccc12 (single isomer, unassigned) [Example 190]	68 nM		2.5 nM	38 nM	8.4 nM		
CC(C)CC(NC(=O)c1cc2ccccc2s1)C(=O)NC1CCCN(S(=O)(=O)c2ccccn2)CC1=O (stereo in doubt) [Example 87, Benzo[b]thiophene-2-carboxylic acid {(S)-3-methyl-1-[3-oxo-1-(pyridine-2-sulfonyl)-azepan-4-ylcarbamoyl]-butyl}amide]	260 nM		1.9 nM	44 nM	3 nM	42 nM	
O=C(N[C@@H](Cc1ccccc1)C(=O)NC1CCCN(S(=O)(=O)c2ccccn2)CC1=O)c1cc2ccccc2o1 (stereo partly drawn) [Example 104, Benzofuran-2-carboxylic acid {(S)-1-[3-oxo-1-(pyridine-2-sulfonyl)-azepan-4-ylcarbamoyl]-2-phenyl-ethyl}-amide]	270 nM		3.2 nM	76 nM	13 nM		
COc1ccc2oc(C(=O)N[C@@H](CC(C)C)C(=O)N[C@H]3CCCN(S(=O)(=O)c4cccs4)CC3=O)cc2c1 [Example 143, 5-Methoxy-benzofuran-2-carboxylic acid-{(S)-3-methyl-1-[3-oxo-1-(thiophene-2-sulfonyl)-azepan-4-ylcarbamoyl]-butyl}-amide]	110 nM		6.5 nM	55 nM	5.7 nM		
COc1cc2cc(C(=O)N[C@H](CC3CCCCC3)C(=O)NC3CCCN(S(=O)(=O)c4cccc[n+]4[O-])CC3=O)oc2cc1OC (stereo partly drawn) [Example 170, 5,6-Dimethoxy-benzofuran-2-carboxylic acid {(S)-2-cyclohexyl-1-[3-oxo-1-(1-oxy-pyridine-2-sulfonyl)-azepan-4-ylcarbamoyl]-ethyl}-amide]	82 nM		4.7 nM	49 nM			
Cc1occc1S(=O)(=O)N1CCC[C@H](NC(=O)[C@H](CC(C)C)NC(=O)c2cc3ccccc3o2)C(=O)C1 [Example 179]	110 nM		5.1 nM	11 nM	2.2 nM		
